Measurements published in patent US20250222009A1, “DINUCLEAR GOLD(I) COMPLEXES FOR TREATING CANCER” (KING FAHD UNIVERSITY OF PETROLEUM AND MINERALS, priority 2024, published 2025).

Experiments:
Assay type in all cases: cell-based, human
A549 cells [1] = assay: Cell cycle analysis (propidium iodide, flow cytometry); conditions: A549, 24 h, 0.06-0.60 μM
Method: (§1) 2.0×10^5 A549 cells were seeded in 6-well plates in a complete medium and treated with the complex 3. Assay results were detected by flow cytometry on a BD FACSCanto II flow cytometer. Data were analyzed using BD FACSDiva v.8.0.1 software (BD Biosciences) unless otherwise indicated. Tumor cells were treated for 72 h with complex 3, then stained for 15 minutes with FITC Annexin-V (Thermo Fisher Scientific) and 7AAD (BD Pharmingen, Milan, Italy). Activated caspase-3,7 was detected using the CaspaTag Caspase-3,7 assay (Merck Millipore) after an incubation of 24 h with complex 3. For B-cell lymphoma/leukemia-2 protein (Bcl-2) and Bcl-2 associated x protein (Bax) analysis, cells were treated for 72 h with C3, then fixed and permeabilized (FIX & PERM Cell Fixation & Cell Permeabilization Kit, Life Technologies). […] The distribution of cells in different cell cycle phases was quantified using ModFit LT 4.0 software (Verity Software House, Topsham, ME, USA) (See: Sulaiman, A. A. A.; Casagrande, N.; Borghese, C.; Corona, G.; Isab, A. A.; Ahmad, S.; Aldinucci, D.; Altaf M. Design, Synthesis, and Preclinical Activity in Ovarian Cancer Models of New Phosphanegold(I)—N-Heterocyclic Carbene Complexes. J Med Chem 2022, 65, 14424-14440, which is incorporated herein by reference in its entirety). […]

A549 cells [2] = assay: Crystal violet staining cell viability; conditions: A549, 72 h
Method: 2.5×10^3 (PC3, MG63, MCF7) or 4.0×10^3 (A2780, A2780cis, A549) cells were seeded in 96-well microplates in 100 μL culture medium. Cells, allowed to adhere for 24 h, were then treated in triplicate with increasing concentrations of gold compounds. Cisplatin was included as a reference drug. Cell viability was evaluated using 3-(4,5-dimethylthiazol-2-yl)-2,5-diphenyltetrazolium bromide (MTT) assay (Sigma-Aldrich) after 72 h of treatment. Half maximal inhibitory concentrations (IC50), IC25, and IC75 were calculated using the CalcuSyn software version 2 (Biosoft, Ferguson, MO, USA) (See: Chou, T. C.; Talalay, P. Quantitative Analysis of Dose-Effect Relationships: The Combined Effects of Multiple Drugs or Enzyme Inhibitors. Adv. Enzyme Regul. 1984, 22, 27-55, which is incorporated herein by reference in its entirety). Fold resistance was calculated as the ratio of the IC50 of the A2780cis to that of the parental cell line A2780. Alternatively, cell viability was assayed by crystal violet staining (See: Feoktistova, M.; Geserick, P.; Leverkus, M. Crystal Violet Assay for Determining Viability of Cultured Cells. Cold Spring Harb Protoc 2016, 2016, pdb.prot087379, which is incorporated herein by reference in its entirety). […]

A549 cells [3] = assay: Mitochondrial ROS generation (MitoSOX Red); conditions: A549, 48 h
Method: as §1

[4] = system: A2780 ovarian cancer cells; assay: MTT cytotoxicity assay, A2780; conditions: 72 h, mean (SD)
Method: The human epithelial ovarian cancer A2780 cell line and its cisplatin-resistant clone A2780cis were obtained from Sigma-Aldrich (Milano, Italy). A2780cis cells were continuously exposed to 1 μM cisplatin to maintain cisplatin resistance. A549 cells (Human non-small cell lung cancer), MCF7 (metastatic breast cancer), PC3 (highly aggressive metastatic prostate cancer), and MG63 (osteosarcoma) were obtained from the American Type Culture Collection (ATCC). Cells were authenticated in laboratory using the PowerPlex 16 HS System. A2780, A2780cis, and PC3 cells were cultured in RPMI-1640 medium; MG63 and MCF7 cells were cultured in DMEM, and A549 cells were cultured in F12 NUT-MIX. The culture medium contained about 10% fetal bovine serum (FBS) (Gibco, Thermo Fisher Scientific, Monza, Italy), about 1% (v/v) of penicillin (10,000 units/mL)-streptomycin (10 mg/mL), and about 1% (v/v) L-glutamine (200 mM) (all from Sigma-Aldrich). Cells were cultured at 37° C. in a 5% CO2, fully humidified atmosphere.
2.5×10^3 (PC3, MG63, MCF7) or 4.0×10^3 (A2780, A2780cis, A549) cells were seeded in 96-well microplates in 100 μL culture medium. Cells, allowed to adhere for 24 h, were then treated in triplicate with increasing concentrations of gold compounds. Cisplatin was included as a reference drug. Cell viability was evaluated using 3-(4,5-dimethylthiazol-2-yl)-2,5-diphenyltetrazolium bromide (MTT) assay (Sigma-Aldrich) after 72 h of treatment. Half maximal inhibitory concentrations (IC50), IC25, and IC75 were calculated using the CalcuSyn software version 2 (Biosoft, Ferguson, MO, USA) (See: Chou, T. C.; Talalay, P. Quantitative Analysis of Dose-Effect Relationships: The Combined Effects of Multiple Drugs or Enzyme Inhibitors. Adv. Enzyme Regul. 1984, 22, 27-55, which is incorporated herein by reference in its entirety). Fold resistance was calculated as the ratio of the IC50 of the A2780cis to that of the parental cell line A2780. Alternatively, cell viability was assayed by crystal violet staining (See: Feoktistova, M.; Geserick, P.; Leverkus, M. Crystal Violet Assay for Determining Viability of Cultured Cells. Cold Spring Harb Protoc 2016, 2016, pdb.prot087379, which is incorporated herein by reference in its entirety). Alternatively, after drug treatment, the culture Medium was removed, cells washed, fixed, and stained, and the Crystal Violet solution lasted 20 minutes (See: Sulaiman, A. A. A.; Casagrande, N.; Borghese, C.; Corona, G.; Isab, A. A.; Ahmad, S.; Aldinucci, D.; Altaf M. Design, Synthesis, and Preclinical Activity in Ovarian Cancer Models of New Phosphanegold(I)—N-Heterocyclic Carbene Complexes. J Med Chem 2022, 65, 14424-14440, which is incorporated herein by reference in its entirety).

CC(C)c1cccc(C(C)C)c1-n1ccn(-c2c(C(C)C)cccc2C(C)C)[c]1=[Au-][P+](CCNCC[P+]([Au-]=[c]1n(-c2c(C(C)C)cccc2C(C)C)ccn1-c1c(C(C)C)cccc1C(C)C)(C1CCCCC1)C1CCCCC1)(C1CCCCC1)C1CCCCC1 [Complex 3, [(Au(IPr))2(C28H24P2)](PF6)2]
cells in G0/G1 phase of the cell cycle (A549 cells [1]): accumulation | cells in S phase of the cell cycle (A549 cells [1]): decrease | growth inhibition by crystal violet staining (A549 cells [2]): growth inhibition | mitochondrial reactive oxygen species (mit-ROS) (A549 cells [3]): increased | IC50 [4]: 110 nM
